Test results reported in patent US11998602B2, “Methods for promoting myelination and for treating demyelinating diseases” (The Scripps Research Institute, priority 2018, dated 2024).

Legend:
[1] = system: OPCs; assay: Mitochondrial respiration assay (oxygen consumption rate, XFe96 Seahorse); type: cell-based, rat; conditions: 2 mM taurine, day 6, basal and benztropine- or miconazole-induced differentiation conditions
Procedure: Mitochondrial respiration assay. Cellular oxygen consumption rate (OCR) was measured using an XFe96 extracellular flux analyzer (Seahorse Biosciences). OPCs were seeded at 40,000 cells/well in PLP-coated XFe96 plates and cultured for 6 days with taurine (2 and 20 mM) alone, or together with miconazole and benztropine. Cells were then incubated in assay medium (DMEM with 20 mM glucose, 5 mM pyruvate and 5 mM sodium bicarbonate, pH˜7.4) for at least 30 min prior to the assay. Media to deliver a final assay well concentration corresponding to of 1 μM oligomycin, 2 μM carbonyl cyanide 4-(trifluoromethoxy) phenylhydrazone (FCCP) and 2 μM rotenone+2 μM antimycin A were pre-loaded into the compound delivery ports of the system. The assay starts with the recording of the basal OCR, followed by recording of the OCR in response to different compounds that constitute the Mitochondria Stress Test (Seahorse Biosciences, Agilent). Once the basal OCR was measured, the compounds were added sequentially and the effects on OCR measured 3 times every 5 min. Oligomycin blocks ATP synthase; FCCP dissipates the inner membrane potential enabling maximum electron flux through the electron transport chain (ETC); rotenone+antimycin A inhibit complexes I and III, respectively, thereby blocking the entry of electrons in the ETC and shutting down mitochondrial activity.

[2] = system: Rat primary optic nerve OPCs; assay: In vitro OPC differentiation assay, MBP expression by Western blot; type: cell-based
Procedure: (§1) Rat primary optic nerve OPCs were isolated by panning (>99% A2B5^+) and cultured in poly-D-lysine (10 μg/ml)-coated TC dishes in OPC culture media (Neurobasal Media, Invitrogen) supplemented with B27-without vitamin A (Invitrogen), 1× non-essential amino acids, 1× Glutamax, 1× anti-anti, β-mercaptoethanol and PDGF-AA (50 ng/ml; Peprotech) at 37° C. with 5% CO2. The culture medium was replaced every 48 h and cells were collected before the confluency reached 60% to maintain a naive state. For differentiation, OPCs were plated at 1 million cells in one 10 cm petri-dish filled with differentiation media, which is identical to the culture media, but with PDGF-AA at 2 ng/ml. T3 and DMSO were used as the positive control and negative control, respectively. Five replicates of cells were collected at different times (0, 3, and 6 days) for metabolomics studies.
Western blot analysis. OPCs were plated in basal differentiation medium at 1.7×10^5 cells/well and treated for 6 days with benztropine (0.5 μM), miconazole (2 μM) with and without the tested endogenous metabolites, T3 (1 μM) or DMSO. After washing with PBS, cells were collected in ice cold RIPA buffer containing protease and phosphatase inhibitors. Following incubation on ice for >20 min and sonication, lysed cells were centrifuged (16,000 g, 15 min at 4° C.). Total protein was quantified using a BCA analysis and 25 μg of protein from each sample was denatured by boiling with Bolt LDS Sample Buffer (4×) and Sample Reducing Agent (10×). Proteins were electrophoresed using Bolt 4-12% Bis-Tris gels (Life Technologies) and transferred to a PVDF membrane (Bio-Rad). The membrane was blocked with Odyssey PBS Blocking Buffer (LI-COR) and incubated overnight at 4° C. with anti-MBP (mouse, 1:2000) and anti-actin (mouse, 1:5000). Blots were incubated with […] secondary donkey anti-mouse antibody (LI-COR, 1:7500) and imaged using Odyssey CLx and Image Studio (LI-COR).

[3] = system: OPCs; assay: Binary global metabolomics analysis of taurine co-treatment; type: cell-based, rat; conditions: for Cysteine pool, increase with taurine / Serine pool, increase with taurine / GSH level, increase with taurine / Cysteine level, increase with taurine / Serine level, increase with taurine: 20 mM taurine; for Cysteine pool, increase with taurine / Serine pool, increase with taurine: 3 days
Procedure: as §1
Global metabolomics and lipidomics. Cells incubated in differentiation medium were collected at Day 0, 3 and 6 for both the T3 and DMSO treated OPC. The cells were first rinsed with PBS twice to completely remove the culture medium and then scraped into a 1.5 mL Eppendorf vial using 500-1000 μL PBS. Subsequently, cells were collected by aspirating the supernatant after centrifugation at 1,000 rpm at 4° C. for 3 min. The global metabolites were extracted from cell pellets by a methanol:acetonitrile:water (2:2:1, v/v) solvent mixture. A volume of 600 μL of cold solvent was added to each pellet, vortexed for 30 s, and soaked in liquid nitrogen for 1 min. Samples were then allowed to thaw at room temperature and then sonicated for 10 min. This freeze-thaw process was repeated for additional twice. To further precipitate proteins, samples were incubated for 1 h at […], followed by centrifugation at 16,000 g at 4° C. for 15 min. The protein concentration of the cells was measured in the final pellet after centrifugation using BCA assay. The resulting supernatant was removed and evaporated to dryness in a vacuum concentrator (LABCONCO CentriVap Benchtop). The dry extracts were then reconstituted in the appropriate volume of acetonitrile/water (1:1, v/v), normalized by the protein concentration with the lowest concentration approximately 50 μL, sonicated for 10 min, and centrifuged for 15 min at 16,000 g and 4° C. to remove insoluble debris. The supernatants were transferred to HPLC vials with inserts and stored at −80° C. prior to LC/MS analysis. The Folch method was used to extract the lipids from OPCs treated with T3 and DMSO for 6 days. A mixture of 600 μL, chloroform/MeOH (2:1, v/v) was used in the freeze-thaw extraction method as described above, and a subsequent addition of 600 μL, of water was performed. Using this liquid-liquid extraction method, the organic phase was collected, dried and finally reconstituted in IPA/MeOH/H2O (5:1:4, v/v/v) before analysis.
Cell extracts were analyzed on a 6550 iFunnel QTOF mass spectrometer (Agilent Technologies) coupled with a 1290 UPLC system (Agilent Technologies). For global metabolomics, HPLC was carried out on a Luna Aminopropyl, 3 μm, 150 mm×1.0 mm I.D. HILIC column (Phenomenex). The mobile phase was composed of A=20 mM ammonium acetate and 40 mM ammonium hydroxide in 95% water (v/v) and B=95% acetonitrile. The remaining 5% components were either acetonitrile or water, respectively. A linear gradient from 100% B (0-5 min) to 100% A (50-55 min) was applied. A 10 min re-equilibration time was applied to the HILIC column for re-equilibration and maintenance of reproducibility. The flow rate was 50 μL/min, and the sample injection volume was 5 μL. ESI source conditions were set as follows: dry gas temperature, 200° C.; flow, 11 L/min, fragmentor, 380 V; sheath gas temperature, 300° C.; flow, 9 L/min; nozzle voltage, 500 V; capillary voltage, −500 V in ESI negative mode. The instrument was set to acquire data over the m/z range 50-1000, with the MS acquisition rate of 1 spectra/s. […]

In the case of `NCCS(=O)(=O)O` [taurine, 2-aminoethanesulfonic acid], the “Oxygen consumption rate (OCR) values” [1] is reported as “significantly increase”, the “MBP induction (Western blot), increase compared to benztropine-induced differentiation in the absence of taurine” value ([2]; 2 mM taurine added to benztropine (0.5 μM), 6 days) is reported as 2.0 fold and the “MBP induction (Western blot), increase compared to miconazole-induced differentiation in the absence of taurine” value ([2]; 2 mM taurine added to miconazole (2 μM), 6 days) is reported as 2.3 fold. For the same molecule, the “Efficacy of induced OPC differentiation” value ([2]; added to benztropine- or miconazole-containing media) was “dramatically increase”, the “Cysteine pool, increase with taurine” value ([3]; T3 1 μM) was 58.8 fold and the “Serine pool, increase with taurine” value ([3]; T3 1 μM) was 17.1 fold. For the same molecule, the “Cysteine pool, increase with taurine” value ([3]; benztropine 0.5 μM) was 154.4 fold, the “Serine pool, increase with taurine” value ([3]; benztropine 0.5 μM) was 10.0 fold and the “Cysteine pool, increase with taurine” value ([3]; miconazole 2 μM) was 76.5 fold. For the same molecule, the “Serine pool, increase with taurine” value ([3]; miconazole 2 μM) was 19.4 fold, the “GSH level, increase with taurine” value ([3]; day 3, T3 1 μM) was 1.8 fold and the “Cysteine level, increase with taurine” value ([3]; day 6, T3 1 μM) was 26.6 fold. The “GSH level, increase with taurine” value ([3]; day 6, T3 1 μM) was 6.1 fold, the “Serine level, increase with taurine” value ([3]; day 6, T3 1 μM) was 2.1 fold and the “Cysteine level, increase with taurine” value ([3]; day 6, benztropine 0.5 μM) was 44.7 fold. For the same molecule, the “Serine level, increase with taurine” value ([3]; day 6, benztropine 0.5 μM) was 13.4 fold, the “Cysteine level, increase with taurine” value ([3]; day 6, miconazole 2 μM) was 47.2 fold and the “Serine level, increase with taurine” value ([3]; day 6, miconazole 2 μM) was 92.5 fold. The “Changes in GSH and glutamate with taurine” value ([3]; benztropine (0.5 μM) or miconazole (2 μM) treated cultures, both time points) was “only minimally altered”.
